We go through one compound from patent US20240316146A1, “METHODS OF REDUCING NEUROPATHY AND NEUROPATHIC SYMPTOMS AND TREATING CANCER” (Bexion Pharmaceuticals Inc., priority 2021, published 2024).

Structures are written as SMILES.

The assay has as its system mouse oxaliplatin model of chemotherapy-induced neuropathy. In words: Static mechanical (tactile) allodynia, von Frey filaments, Study 2. Format: in vivo. The settings on record: Study 2; oxaliplatin treated mice, days assessed; BXQ-350 2 and 10 mg/kg. The method, then: Static mechanical tactile allodynia: Static mechanical (tactile) allodynia was assessed by measurement of withdrawal threshold using calibrated (force; g) von-Frey monofilaments (Touch-Test Sensory Evaluator; Scientific Marketing Associates) applied to the plantar surface of the left hind-paw. The animals were placed in individual Perspex boxes on a raised metal mesh for 30-40 min before the test to habituate. A series of graduated von Frey hairs (0.07, 0.16, 0.4, 0.6 and 1 g) were applied in sequence with a protocol of 1 sec on 1 sec off repeated 10 times. Each hair was applied perpendicularly to the center of the ventral surface of the paw until it bent slightly. The force applied to the hind-paw of the animal to induce 5 responses out of 10 trials was recorded as paw withdrawal threshold (PWT) 50%.
60 adult male C57/BL6 mice (Charles River), 6-7 weeks of age, were housed in groups of 5 in Perspex cages, in a controlled environment of constant temperature and humidity (temperature: 21±1° C., light: dark cycle of 12:12 hours), with food and water available ad libitum. Animals were allowed to recover from transportation for at least one week before commencing experiments.
Static mechanical tactile allodynia: The same apparatus and protocol were used as for Study 1.

Take `O=C([O-])C(=O)[O-].[NH-][C@@H]1CCCC[C@H]1[NH-].[Pt+4]` (relative stereo) [Oxaliplatin, cis-[(1R,2R)-1,2-cyclohexanediamine-N,N′][oxalato(2)-O,O′] platinum]: the “paw withdrawal threshold (PWT) levels (in words)” value was “induced consistent and persistent mechanical allodynic response”.
